# From US7655768B2, “Galactose derivative, drug carrier and medicinal composition” (Nippon Shinyaku Co., Ltd., priority 2004, dated 2010)
# System: HuH-7 cells (human hepatoma cell line)
# Experiment: Expression efficiency of luciferase plasmid DNA delivered by carrier compositions in HuH-7 cells
# Type: cell-based
# Settings: 24 hours after addition of composition, carriers of Examples 9 to 13 with rising content of the Example 2 derivative, compared with carrier of Comparative Example 1, FIG. 1
# Protocol: By adding 50 μL of 10% maltose solution to 1 μg of the plasmid DNA encording luciferase gene, 50 μL of the plasmid solution containing the plasmid at 20 μg/mL was prepared. In addition, by adding 44 μL of 10% maltose solution to 6 μL of the dispersion liquid of the carrier according to Example 9 to 13 or Comparative Example 1, 50 μL of the diluted solution of the carrier at 600 μg/mL was prepared.
# 50 μL of the above nucleic acid solution was added to 50 μL of the above diluted solution of the carrier, and then mixed gently. Then, the sample was left at room temperature for 15 minutes to prepare 100 μL of the composition solution containing the above plasmid at 10 μg/mL.
# HuH-7 cells (human hepatoma cell line) were seeded on a 96-well plate at 1×10^4 cells/well, and were incubated for 18 hours at 37° C. under 5% CO2. Then, 10 μL of the composition containing the carrier according to Example 9 to 13 or Comparative Example 1 prepared above (1) was added per well, and incubation was further continued. After 24 hours from addition of the composition, luciferase activity was measured. Luciferase activity was measured by detecting the bioluminescence with Top Count (manufactured by Packard), using Steady Glo Luciferase Assay System (manufactured by Promega). Meanwhile, a comparative control was a cell given the composition containing the carrier according to Comparative Example 1.
compound,measurement,value
"CCCCCCCC/C=C\CCCCCCCC(=O)OC[C@H](COP(=O)(O)OCCOCCOCCOCCOCCNC[C@H](O)[C@@H](O)[C@H](O[C@@H]1O[C@H](CO)[C@H](O)[C@H](O)[C@H]1O)[C@H](O)CO)OC(=O)CCCCCCC/C=C\CCCCCCCC [Example 2, L-α-dioleoylphosphatidyl{14-N-(1-deoxylactito-1-yl)amino-3,6,9,12-tetraoxa}tetradecanol]",expression efficiency of luciferase gene (luciferase activity),increased as compared with that in the comparative control as a function of concentration of the derivative of the present invention
